Source: patent publication US12215084B2, “2(1H)-pyridinones and their use to treat inflammatory conditions” (Conopco, Inc., priority 2019, dated 2025)
Like-named read-outs stand apart in the source and are kept apart here.

Tests used:
[1] = background statement (well known; Clariant introduction), cited from earlier work
[2] = Octopirox® degradation under cool white light; assay type: physicochemical; conditions: cool white light (indoor light), 24 hours, room temperature, LCMS / UPLC-UV
Procedure: Cool White Light Treatment:
The cool white light (CWL) irradiation was carried out in an X-Rite (Macbeth) Spectra Light III chamber. CWL mode was chosen which provides stable irradiation mimicking the indoor light. The intensity of light was fixed which estimated at 6 μw/cm2 for UVA and 1.5 μw/cm^2 for UVB. The chamber temperature was equal to the room temperature ([…]). The sample was placed in a line close to the center of the chamber. After 24 hours, the sample was analyzed by LCMS (Water UPLC coupled with Quatro Micro MS)., by quantitatively measured using UPLC-UV analysis following DPS derivatization.
The separation was performed by a UPLC BEH C18 column and the mobile phase was acetonitrile/water (60/40, 0.1% formic acid) in isocratic elution. Electrospray ionization in positive mode was applied for MS scan.

THP1-XBlue™ cells = assay: Anti-inflammation efficacy in THP-1 in vitro assay (LPS co-treatment, IL-6 ELISA); assay type: cell-based; conditions: co-treated with E. coli LPS, PMA-differentiated THP1-XBlue cells, 24 hours, supernatant ELISA, LPS alone 3253.4
Procedure: The following procedure was used to test the anti-inflammation efficacy of the compound:
THP1-XBlue™ (Cat No: thpx-sp, InvivoGen) cells were cultured as suspense in RPMI 1640 medium supplemented with 10% FBS, penicillin (10 U/mL)—streptomycin (10 μg/ML). Cells were differentiated in 24-well plates at the density of 5×10^5 cells/well with 100 nM PMA for 72 hours. Cells were then co-treated with pure E. coli ipopolysaccharides (LPS) and with the compound inside the invention. After 24 hours, the supernatants were collected and measured for interleukin (IL)-6 as pro-inflammatory bio-marker using enzyme-linked immunosorbent assay (ELISA).

Compound | light stability [1] | light stability ([1]; listed as piroctone olamine) | quantity of Octopirox® after cool white light irradiation [2] | Concentration of IL-6 (THP1-XBlue™ cells; 5 μM of the compound) [pg/mL] | Concentration of IL-6 (THP1-XBlue™ cells; 10 μM of the compound) [pg/mL]
Cc1cc(CC(C)CC(C)(C)C)n(O)c(=O)c1.NCCO (centres unmarked) [Octopirox®, piroctone olamine] | unstable under light | light instable | reduced | – | –
Cc1cc(O)nc(CC(C)CC(C)(C)C)c1 (centres unmarked) [the compound] | – | – | – | 3083.3 | 1405.3
